# Read-outs that look alike come from different tables or passages of the source.
# Tests used:
# [1] = test system: C. albicans strain ATCC 10231; assay: Murine systemic model of candidiasis; assay type: in vivo, mice; settings: for % Survival: after nine days
# Method: (§1) In vivo activity was determined using a murine systemic model of candidiasis. Groups of 5 to 10 mice were inoculated IV with 1-2×10^7 cells of C. albicans strain ATCC 10231 (10 times the lethal dose). One hour after inoculation, the candidate antifungal compounds were delivered IP. 10 mg/kg of compound A was injected into each mouse of the compound A treatment group. Two separate treatment groups received 30 and 100 mg/kg, respectively, of compound B. Amphotericin B was injected into a positive control treatment group at 10 mg/kg. All compounds were delivered in phosphate-buffered saline (PBS) and one treatment group received PBS. Twice daily thereafter the mice were observed, the number of dead mice recorded, and the dead mice removed. After nine days, the total mortality over the period was determined.
# [2] = Maximal tolerated dose in mice, IP administration; settings: mouse, in vivo, read-out: maximal tolerated dose (maximum dose that caused no deaths within 72 hours)
# Method: as §1
# Using the same methodology, it was determined that the maximal tolerated dose in these mice (i.e., the maximum dose that caused no deaths within 72 hours following IP administration) of compound B was in excess of 200 mg/kg. The mice treated with 2108B or Amphotericin B injected IP in […] of phosphate buffered saline, pH 7.4 had the following treatment profiles: […]
# [3] = test system: Candida Albicans strain B311A; assay: MIC assay (Example 1B); assay type: cell-based; settings: for MIC: Candida albicans; for activity in the MIC assay of Example 1B (in words): HPLC-purified material, strain not stated
# Method: The fractions from the purification were tested for antifungal activity against C. albicans (strain B311A available from Dr. Paul Actor, Temple University and strains ATCC Nos. 10231 and 10261) and C. tropicalis (strain 13803). […] Prior to the assay for antifungal activity, the fungus to be tested for susceptibility was grown overnight from a single colony in 5 ml of medium at 30° C. This overnight culture was diluted 1:10 with fresh medium and grown at 37° C. for 4 hours. A volume of 5 μl of extracts, dissolved in DMSO, was added to each separate well in a series of 96-well plates. 4,000 fungal cells were then added to each plate in 95 μl of medium. The optical densities of the wells were measured and the plates incubated at 37° C. The optical densities were again measured after 24 and 48 hours. Minimum inhibitory concentrations ("MICs") for the extracts were determined using this procedure wherein the extracts were serially diluted in medium prior to mixing with the 4,000 fungal cells.
# FAS from S. cereviseae = target: T1, FAS from S. cereviseae (Saccharomyces cerevisiae, UniProt P07149+P19097); assay: FAS inhibition assay (Example 1C); assay type: biochemical
# T1 construct: an FAS extract from Saccharomyces cerviseae was prepared; (the yeast itself); host or cells: Fleishmans' freeze dried yeast (Saccharomyces cerevisiae); dialyzed ammonium sulfate precipitate of the lysate
# Method: To test the compounds for FAS inhibitory activity, an FAS extract from Saccharomyces cerviseae was prepared. Freeze dried yeast (Fleishmans' freeze dried yeast, Specialty Brands, San Francisco, Calif.) 1 g, was hydrated in 5 mls deionized water for 15 minutes at 4° C. Subsequent extraction steps were conducted at a temperature between 4° C. and 10° C., except that in the cell lysis step the temperature may have briefly exceeded these boundaries. The cells were pelleted by centrifugation; the pelleted volume was measured; and the cells were resuspended in 5 vol. (5 mls per ml cell volume) extraction buffer [125 mM KH2PO4, pH 6.6, 1 mM EDTA, 1 mM DTT, 0.7 μg/ml pepstatin (Boehringer Mannheim, Indianapolis, Ind.), 0.2 μg/ml aprotinin (Boehringer Mannheim, Indianapolis, Ind.), 0.2 μg/ml leupeptin (Boehringer Mannheim, Indianapolis, Ind.)]. The cells were again pelleted and resuspended in 2 vol. extraction buffer. The cells were lysed using a bead mill homogenizer (Biospec Products, Bartlesville, OD) with a volume of glass beads equal to the volume of the yeast cells. The bead mill was operated five times for 1 minute, with 1 minute intervals between operations to allow the water jacket of the bead mill to cool the material in the mill. The lysate was centrifuged at 30,000×g for 30 minutes and the supernate was collected. Ammonium sulfate was added to the supernate to 50% saturation and the mixture was stirred for 30 minutes on ice. […]
# 105 μl of FAS extract was placed in each well of a polypropylene 96 well plate (Costar Corp. Cambridge, Mass.) and multiple 5 μl dilutions of compound A, compound B or negative control solution were introduced into each of the wells. […] The relative initial reaction rates in each well were measured by measuring the decrease in optical density at 340 nm using a UV Max microtiter plate reader (Molecular Devices, Sunnyvalle, Calif.).
# [4] = test system: Candida tropicalis (strain ATCC 13803); assay: Disk diffusion assay for antimicrobial activity (Example 2); assay type: cell-based
# Method: (§2) Fungal cells were grown overnight from a single colony in 2-5 ml Sabouraud Dextrose Broth at 37° C. 1-5×10^6 were spread onto Sabouraud Dextrose Agar plates (Difco, Detroit, Mich.). Sterile 6 mm filter disks were evenly spaced with at least about 22 mm separation on the plates. To each disk, 100 μg of a compound to be tested was applied in 5-10 μl DMSO. On each plate, two disks containing 2.5 and 10 μg, respectively, of Amphotericin B (Sigma) and two disks containing 2.5 and 10 μg, respectively, of cerulenin (Sigma) were used as positive controls. A disk containing only DMSO served as the negative control. The plates were incubated at 37° C. for 24 hours and the zone of growth inhibition about each disk was visually examined and measured. Compound A and compound B typically produced clear zones of 8-12 mm diameter. Amphotericin B typically produced a clear zone of 8-10 mm diameter. Cerulenin typically produced a hazy zone of 20-25 mm diameter. A clear zone is indicative of fungicidal activity, while a hazy zone is indicative of fungistatic activity.
# [5] = test system: Candida albicans (strains ATCC 10231 and ATCC 10261); assay: as above; assay type: cell-based
# Method: as §2
# Fungal cells = assay: Disk diffusion assay for antimicrobial activity (Example 2), zone of growth inhibition; assay type: cell-based; settings: for zone of inhibition at 100 µg/disc: 100 μg per 6 mm disk, read-out: zone of growth inhibition, diameter; for zone of inhibition at 100 µg/disc / zone of growth inhibition, diameter: 37° C., 24 hours
# Method: as §2
# [6] = target: T2, FAS of C. Albicans strain 4918 (Candida albicans, UniProt P34731+P43098); assay: FAS activity in extracts of treated C. Albicans cultures (Example 10); assay type: cell-based; settings: for remaining activity at 10 µg/mL / remaining activity at 25 µg/mL: read-out: Percent Remaining FAS Activity
# T2 construct: endogenous in cells; host or cells: Candida albicans strain 4918 (from Dr. Ronald Cihlar, Georgetown University Medical Center)
# Method: C. Albicans strain 4918 (available from Dr. Ronald Cihlar, Georgetown University Medical Center, Washington, D.C.) was grown in minimal medium (M63 media available from Difco, Detroit, Mich.) at 37° C. to mid-log phase. 10 μg/ml cerulenin and 25 μg/ml of compound B were added to separate cultures. At 15 minute intervals, 20 ml samples were removed and extracts prepared by mechanical extraction as in Example 1C, except that the ammonium sulfate precipitation step was not applied. The extract was diluted to 1 ml to form a solution containing 0.4M potassium phosphate, pH 7.3, 0.125 μM dithiothreitol, 50 μM acetyl-CoA, 100 μM NADPH. After incubation at 37° C. for 5 minutes, 100 μM malonyl-CoA containing 0.5 μCi [2-^14 C]-malonyl-CoA (Amersham, Arlington Heights, Ill.). After 10 minutes at 37° C., the fatty acid synthesis reaction was terminated by adding 30 μl of 60% perchloric acid (v/v) and 1 ml ethanol. Four volumes of pet. ether were added to each reaction incubation to extract the fatty acids. The relative incorporation of malonyl-CoA into fatty acids was determined by liquid scintillation counting.
# [7] = 10 mg/kg IP one hour after inoculation
# [8] = Sabouraud Dextrose Broth substituted for YNB medium
# [9] = positive control disks with 2.5 and 10 μg
# T1 sequence (P19097 whole entry): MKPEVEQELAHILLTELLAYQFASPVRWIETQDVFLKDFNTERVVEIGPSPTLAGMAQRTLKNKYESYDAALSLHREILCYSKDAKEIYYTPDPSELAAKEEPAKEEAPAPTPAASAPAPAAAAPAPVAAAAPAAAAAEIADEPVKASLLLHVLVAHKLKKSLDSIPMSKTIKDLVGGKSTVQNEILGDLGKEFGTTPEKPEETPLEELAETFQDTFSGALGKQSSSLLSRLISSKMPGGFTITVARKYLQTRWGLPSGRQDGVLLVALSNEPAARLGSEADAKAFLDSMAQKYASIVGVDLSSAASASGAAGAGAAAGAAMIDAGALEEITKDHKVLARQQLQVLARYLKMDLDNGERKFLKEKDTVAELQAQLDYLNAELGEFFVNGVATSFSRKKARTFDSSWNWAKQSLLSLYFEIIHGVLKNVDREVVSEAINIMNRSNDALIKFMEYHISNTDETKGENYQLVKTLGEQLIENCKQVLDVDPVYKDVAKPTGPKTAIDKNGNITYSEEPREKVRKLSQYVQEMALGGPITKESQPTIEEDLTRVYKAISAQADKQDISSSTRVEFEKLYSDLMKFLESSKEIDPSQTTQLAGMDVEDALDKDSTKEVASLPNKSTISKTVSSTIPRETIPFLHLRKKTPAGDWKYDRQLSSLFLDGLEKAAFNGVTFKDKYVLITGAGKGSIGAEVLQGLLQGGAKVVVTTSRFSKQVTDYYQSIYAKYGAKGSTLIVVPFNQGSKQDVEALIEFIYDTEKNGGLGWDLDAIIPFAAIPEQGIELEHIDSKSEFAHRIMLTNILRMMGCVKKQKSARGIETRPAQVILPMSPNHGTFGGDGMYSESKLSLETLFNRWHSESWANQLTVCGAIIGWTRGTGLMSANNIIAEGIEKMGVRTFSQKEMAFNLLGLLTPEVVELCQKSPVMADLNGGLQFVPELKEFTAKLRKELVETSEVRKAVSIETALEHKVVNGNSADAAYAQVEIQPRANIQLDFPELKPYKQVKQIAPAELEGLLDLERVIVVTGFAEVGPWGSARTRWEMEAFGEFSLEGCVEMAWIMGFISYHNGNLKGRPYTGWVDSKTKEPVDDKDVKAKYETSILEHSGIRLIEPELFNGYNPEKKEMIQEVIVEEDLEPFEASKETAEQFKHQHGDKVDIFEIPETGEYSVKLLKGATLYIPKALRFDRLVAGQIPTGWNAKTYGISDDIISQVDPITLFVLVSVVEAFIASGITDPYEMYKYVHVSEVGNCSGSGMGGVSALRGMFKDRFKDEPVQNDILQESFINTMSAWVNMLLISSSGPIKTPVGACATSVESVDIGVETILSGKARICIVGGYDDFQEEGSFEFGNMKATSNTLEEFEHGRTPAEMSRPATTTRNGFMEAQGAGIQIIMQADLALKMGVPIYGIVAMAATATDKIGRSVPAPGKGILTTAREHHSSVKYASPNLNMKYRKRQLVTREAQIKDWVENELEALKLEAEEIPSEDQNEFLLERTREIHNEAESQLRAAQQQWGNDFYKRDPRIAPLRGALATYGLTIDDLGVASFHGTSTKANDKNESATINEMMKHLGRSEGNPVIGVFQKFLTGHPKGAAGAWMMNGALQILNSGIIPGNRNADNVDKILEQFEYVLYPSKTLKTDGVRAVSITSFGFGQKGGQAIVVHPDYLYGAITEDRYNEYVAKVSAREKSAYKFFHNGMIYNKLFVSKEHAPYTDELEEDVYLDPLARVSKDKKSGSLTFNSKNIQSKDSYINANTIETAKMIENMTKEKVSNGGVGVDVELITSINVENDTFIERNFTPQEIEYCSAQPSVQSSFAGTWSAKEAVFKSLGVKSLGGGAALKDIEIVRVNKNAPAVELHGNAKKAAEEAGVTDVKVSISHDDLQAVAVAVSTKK
# T1 sequence (P07149 whole entry): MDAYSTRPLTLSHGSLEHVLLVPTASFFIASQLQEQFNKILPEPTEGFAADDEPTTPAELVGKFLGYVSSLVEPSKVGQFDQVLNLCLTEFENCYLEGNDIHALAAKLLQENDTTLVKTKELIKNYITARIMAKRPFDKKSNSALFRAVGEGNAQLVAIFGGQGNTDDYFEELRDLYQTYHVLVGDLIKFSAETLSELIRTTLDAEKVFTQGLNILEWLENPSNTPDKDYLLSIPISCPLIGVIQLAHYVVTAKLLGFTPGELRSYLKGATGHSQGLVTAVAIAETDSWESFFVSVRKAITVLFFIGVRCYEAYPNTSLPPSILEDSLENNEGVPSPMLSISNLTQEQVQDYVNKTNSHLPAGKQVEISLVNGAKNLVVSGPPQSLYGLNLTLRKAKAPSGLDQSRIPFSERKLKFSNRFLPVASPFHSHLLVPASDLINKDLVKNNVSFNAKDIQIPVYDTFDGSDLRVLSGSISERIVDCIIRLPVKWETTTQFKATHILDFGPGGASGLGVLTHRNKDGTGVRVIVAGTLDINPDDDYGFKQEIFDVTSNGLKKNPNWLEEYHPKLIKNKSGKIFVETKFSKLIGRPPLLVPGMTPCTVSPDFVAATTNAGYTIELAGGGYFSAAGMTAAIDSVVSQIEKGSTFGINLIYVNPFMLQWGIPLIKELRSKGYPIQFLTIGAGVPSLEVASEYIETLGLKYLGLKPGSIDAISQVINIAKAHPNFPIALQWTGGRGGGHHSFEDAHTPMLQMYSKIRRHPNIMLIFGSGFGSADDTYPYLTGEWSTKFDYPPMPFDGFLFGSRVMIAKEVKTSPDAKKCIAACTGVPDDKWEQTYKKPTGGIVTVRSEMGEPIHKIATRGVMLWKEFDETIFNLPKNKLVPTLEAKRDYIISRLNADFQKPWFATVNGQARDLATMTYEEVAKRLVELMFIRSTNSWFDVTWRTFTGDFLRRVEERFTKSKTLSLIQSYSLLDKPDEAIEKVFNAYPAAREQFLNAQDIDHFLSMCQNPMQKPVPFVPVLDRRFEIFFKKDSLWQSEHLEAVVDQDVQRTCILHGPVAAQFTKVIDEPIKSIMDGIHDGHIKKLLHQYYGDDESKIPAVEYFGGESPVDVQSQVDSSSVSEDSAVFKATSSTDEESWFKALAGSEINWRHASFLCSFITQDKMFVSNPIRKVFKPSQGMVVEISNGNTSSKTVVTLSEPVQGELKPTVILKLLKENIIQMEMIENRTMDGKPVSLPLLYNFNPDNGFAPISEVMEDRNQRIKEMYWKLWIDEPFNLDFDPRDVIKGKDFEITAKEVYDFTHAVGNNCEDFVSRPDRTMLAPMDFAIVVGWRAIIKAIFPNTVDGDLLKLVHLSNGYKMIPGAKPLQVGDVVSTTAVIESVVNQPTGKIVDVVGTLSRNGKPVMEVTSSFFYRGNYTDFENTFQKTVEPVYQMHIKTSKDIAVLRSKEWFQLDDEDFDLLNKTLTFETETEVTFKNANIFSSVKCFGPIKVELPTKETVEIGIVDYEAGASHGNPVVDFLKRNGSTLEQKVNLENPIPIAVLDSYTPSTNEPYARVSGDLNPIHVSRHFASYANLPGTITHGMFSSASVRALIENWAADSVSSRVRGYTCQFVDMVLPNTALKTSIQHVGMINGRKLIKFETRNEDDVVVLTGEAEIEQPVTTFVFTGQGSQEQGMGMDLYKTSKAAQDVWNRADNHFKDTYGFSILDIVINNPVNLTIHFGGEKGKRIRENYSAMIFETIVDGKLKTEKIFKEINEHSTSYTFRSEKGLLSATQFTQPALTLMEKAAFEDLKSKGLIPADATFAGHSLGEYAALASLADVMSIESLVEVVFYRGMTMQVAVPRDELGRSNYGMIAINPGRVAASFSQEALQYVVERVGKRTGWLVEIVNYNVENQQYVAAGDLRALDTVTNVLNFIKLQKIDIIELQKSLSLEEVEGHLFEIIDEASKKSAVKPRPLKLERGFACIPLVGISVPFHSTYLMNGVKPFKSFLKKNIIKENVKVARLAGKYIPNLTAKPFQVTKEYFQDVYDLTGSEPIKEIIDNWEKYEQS
structure (smiles),measurement,setting,value
C/C=C/C=C/C=C/C1=CC2=CC(=O)C(C)(OC(=O)CC(C)O)C(=O)C23OC3O1 (centres unmarked) [Compound A],"Deaths Each Day Post Inoculation, day 0",[1]; 10 mg/kg IP,0
same,"Deaths Each Day Post Inoculation, day 1",[1]; 10 mg/kg IP,0
same,"Deaths Each Day Post Inoculation, day 2",[1]; 10 mg/kg IP,2
same,"Deaths Each Day Post Inoculation, day 3",[1]; 10 mg/kg IP,3
same,"Deaths Each Day Post Inoculation, day 4",[1]; 10 mg/kg IP,0
same,"Deaths Each Day Post Inoculation, day 5",[1]; 10 mg/kg IP,0
same,"Deaths Each Day Post Inoculation, day 6",[1]; 10 mg/kg IP,0
same,"Deaths Each Day Post Inoculation, day 7",[1]; 10 mg/kg IP,0
same,"Deaths Each Day Post Inoculation, day 8",[1]; 10 mg/kg IP,0
same,"Deaths Each Day Post Inoculation, day 9",[1]; 10 mg/kg IP,0
same,% Survival,[1]; [7],0%
same,MTD at 72 h,[2],10 mg/kg
same,MIC,[3]; [8],50 µg/mL
same,MIC,[3]; YNB medium,25 µg/mL
same,activity in the MIC assay of Example 1B (in words),[3],retained activity
same,FAS inhibition in the in vitro enzyme inhibition assay (in words),FAS from S. cereviseae,retained activity
same,IC50,FAS from S. cereviseae,414 µM
same,antimicrobial activity (in words),[4],had antimicrobial activity
same,antimicrobial activity (in words),[5],had antimicrobial activity
same,zone of inhibition at 100 µg/disc,Fungal cells,8 to 12 mm
same,"zone appearance (clear = fungicidal, hazy = fungistatic)",Fungal cells; 100 μg per disk,clear zones
"C/C=C/C/C=C/CCC(=O)[C@H]1O[C@H]1C(N)=O [Cerulenin, cerulenin, reference compound]","zone appearance (clear = fungicidal, hazy = fungistatic)",Fungal cells; [9],hazy zone
same,"zone of growth inhibition, diameter",Fungal cells; [9],20-25 mm
same,remaining activity at 10 µg/mL,[6]; 0.25 h,20%
same,remaining activity at 10 µg/mL,[6]; 0.5 h,12%
"C/C=C/C=C/C=C/C1=CC2=CC(=O)C(C)(OC(=O)CC(O)CC(C)O)C(=O)C23OC3O1 (centres unmarked) [patulodin, reference compound]",MIC,[3]; YNB medium,> 100 µg/mL
same,zone of inhibition at 100 µg/disc,Fungal cells,7 mm
C/C=C/C=C/C=C/C1=CC2=CC(=O)C(C)(OC(=O)CC(C)O)C(=O)C2=CO1 (centres unmarked) [Compound B],"Deaths Each Day Post Inoculation, day 0",[1]; 30 mg/kg IP,0
same,"Deaths Each Day Post Inoculation, day 1",[1]; 30 mg/kg IP,2
same,"Deaths Each Day Post Inoculation, day 2",[1]; 30 mg/kg IP,1
same,"Deaths Each Day Post Inoculation, day 3",[1]; 30 mg/kg IP,0
same,"Deaths Each Day Post Inoculation, day 4",[1]; 30 mg/kg IP,0
same,"Deaths Each Day Post Inoculation, day 5",[1]; 30 mg/kg IP,0
same,"Deaths Each Day Post Inoculation, day 6",[1]; 30 mg/kg IP,0
same,"Deaths Each Day Post Inoculation, day 7",[1]; 30 mg/kg IP,0
same,"Deaths Each Day Post Inoculation, day 8",[1]; 30 mg/kg IP,0
same,"Deaths Each Day Post Inoculation, day 9",[1]; 30 mg/kg IP,0
same,% Survival,[1]; 30 mg/kg IP one hour after inoculation,40%
same,"Deaths Each Day Post Inoculation, day 0",[1]; 100 mg/kg IP,0
same,"Deaths Each Day Post Inoculation, day 1",[1]; 100 mg/kg IP,2
same,"Deaths Each Day Post Inoculation, day 2",[1]; 100 mg/kg IP,0
same,"Deaths Each Day Post Inoculation, day 3",[1]; 100 mg/kg IP,0
same,"Deaths Each Day Post Inoculation, day 4",[1]; 100 mg/kg IP,0
same,"Deaths Each Day Post Inoculation, day 5",[1]; 100 mg/kg IP,0
same,"Deaths Each Day Post Inoculation, day 6",[1]; 100 mg/kg IP,0
same,"Deaths Each Day Post Inoculation, day 7",[1]; 100 mg/kg IP,0
same,"Deaths Each Day Post Inoculation, day 8",[1]; 100 mg/kg IP,1
same,"Deaths Each Day Post Inoculation, day 9",[1]; 100 mg/kg IP,0
same,% Survival,[1]; 100 mg/kg IP one hour after inoculation,40%
same,MTD at 72 h,[2],> 200 mg/kg
same,MIC,[3]; [8],50 µg/mL
same,MIC,[3]; YNB medium,6.25 µg/mL
same,activity in the MIC assay of Example 1B (in words),[3],retained activity
same,FAS inhibition in the in vitro enzyme inhibition assay (in words),FAS from S. cereviseae,not directly inhibitory of FAS
same,antimicrobial activity (in words),[4],had antimicrobial activity
same,antimicrobial activity (in words),[5],had antimicrobial activity
same,zone of inhibition at 100 µg/disc,Fungal cells,8 to 12 mm
same,"zone appearance (clear = fungicidal, hazy = fungistatic)",Fungal cells; 100 μg per disk,clear zones
same,FAS activity of cell extracts made after exposure (in words),[6],markedly reduced FAS activity
same,remaining activity at 25 µg/mL,[6]; 0.25 h,53%
same,remaining activity at 25 µg/mL,[6]; 0.5 h,40%
same,remaining activity at 25 µg/mL,[6]; 0.75 h,35%
same,remaining activity at 25 µg/mL,[6]; 1 h,22%
"C[C@@H]1[C@H](O)[C@@H](C)/C=C/C=C/C=C/C=C/C=C/C=C/C=C/[C@H](O[C@@H]2O[C@H](C)[C@@H](O)[C@H](N)[C@@H]2O)C[C@@H]2O[C@](O)(C[C@@H](O)C[C@@H](O)[C@H](O)CC[C@@H](O)C[C@@H](O)CC(=O)O[C@H]1C)C[C@H](O)[C@H]2C(=O)O [Amphotericin B, reference compound]","Deaths Each Day Post Inoculation, day 0",[1]; 10 mg/kg IP,0
same,"Deaths Each Day Post Inoculation, day 1",[1]; 10 mg/kg IP,0
same,"Deaths Each Day Post Inoculation, day 3",[1]; 10 mg/kg IP,0
same,"Deaths Each Day Post Inoculation, day 5",[1]; 10 mg/kg IP,0
same,"Deaths Each Day Post Inoculation, day 6",[1]; 10 mg/kg IP,0
same,"Deaths Each Day Post Inoculation, day 7",[1]; 10 mg/kg IP,0
same,"Deaths Each Day Post Inoculation, day 8",[1]; 10 mg/kg IP,0
same,"Deaths Each Day Post Inoculation, day 9",[1]; 10 mg/kg IP,0
same,% Survival,[1]; [7],80%
same,"zone appearance (clear = fungicidal, hazy = fungistatic)",Fungal cells; [9],clear zone
same,"zone of growth inhibition, diameter",Fungal cells; [9],8-10 mm
